Data: patent US20100331315A1, “RHODANINES AND RELATED HETEROCYCLES AS KINASE INHIBITORS” (priority 2009, published 2010)
Read-outs that look alike come from different tables or passages of the source.

Tests used:
MV-4-11 = assay: Alamar Blue cell proliferation assay, MV-4-11; type: cell-based; details: Homo sapiens
Protocol: (§1) A representative cell-proliferation assay protocol using Alamar Blue dye (stored at 4° C., use 20 ul per well) is described hereafter.
(§2) a. Split and trypsinize cells.
(§3) b. Count cells using hemocytometer.
(§4) c. Plate 4,000-5,000 cells per well in 100 μl of medium and seed into a 96-well plate according to the following plate layout. Add cell culture medium only to wells B10 to B12. Wells B1 to B9 have cells but no compound added.
(§5) d. Add 100 μl of 2× drug dilution to each well in a concentration shown in the plate layout above. At the same time, add 100 μl of media into the control wells (wells B10 to B12). Total volume is 200 μl/well.
(§6) e. Incubate four (4) days at 37° C., 5% CO2 in a humidified incubator.
(§7) f. Add 20 μl Alamar Blue reagent to each well.
(§8) g. Incubate for four (4) hours at 37° C., 5% CO2 in a humidified incubator.
(§9) h. Record fluorescence at an excitation wavelength of 544 nm and emission wavelength of 590 nm using a microplate reader.
(§10) In the assays, cells are cultured with a test compound for approximately four days, the dye is then added to the cells and fluorescence of […] dye is detected after approximately four hours. Different types of cells can be utilized in the assays (e.g., HCT-116 human colorectal carcinoma cells, PC-3 human prostatic cancer cells and MiaPaca human pancreatic carcinoma cells).

MDAMB231 = assay: Alamar Blue cell proliferation assay, MDAMB231; type: cell-based; details: Homo sapiens
Protocol: as §1, §2, §3, §4, §5, §6, §7, §8, §9, §10

K-562 = assay: Alamar Blue cell proliferation assay, K-562; type: cell-based; details: Homo sapiens
Protocol: as §1, §2, §3, §4, §5, §6, §7, §8, §9, §10

[1] = system: MiaPaca human pancreatic carcinoma cells; assay: Alamar Blue cell proliferation assay, MiaPaCa; type: cell-based
Protocol: as §1, §2, §3, §4, §5, §6, §7, §8, §9, §10

recombinant PIM-1 = recombinant PIM-1 (Homo sapiens, UniProt P11309); assay: PIM-1 assay (33P-ATP filter plate); type: biochemical; details: read-out: PIM1: IC50
recombinant PIM-1, sequence (P11309 whole entry): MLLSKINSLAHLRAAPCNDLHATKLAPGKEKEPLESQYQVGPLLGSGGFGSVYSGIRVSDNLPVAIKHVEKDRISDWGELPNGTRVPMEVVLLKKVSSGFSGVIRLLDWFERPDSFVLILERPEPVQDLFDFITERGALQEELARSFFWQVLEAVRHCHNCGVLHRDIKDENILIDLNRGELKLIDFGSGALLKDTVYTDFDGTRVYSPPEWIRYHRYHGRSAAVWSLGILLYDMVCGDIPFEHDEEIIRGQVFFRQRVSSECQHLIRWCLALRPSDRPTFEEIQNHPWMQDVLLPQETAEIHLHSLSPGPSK
Protocol: The following procedure was used to assay the PIM-1 kinase activity of compounds of the invention. Other methods for assaying PIM-1 and other PIM kinases, as well as methods to assay for activity against the various kinases are known in the art.
In a final reaction volume of 50 ul, recombinant PIM-1 (1 ng) was incubated with 12 mM MOPS pH 7.0, 0.4 mM EDTA, glycerol 1%, brij 35 0.002%, 2-mercaptoethanol 0.02%, BSA 0.2 mg/ml, 100 uM KKRNRTLTK, 10 mM MgAcetate, 15 uM ATP, [γ-^33P-ATP] (specific activity approx. 500 cpm/pmol), DMSO 4% and test inhibitor compound at the required concentration. The reaction was initiated by the addition of the Magnesium ATP mixture. After 40 min incubation at 23° C., the reactions were quenched by the addition of 100 ul 0.75% Phosphoric acid, and the labeled peptide collected by filtration through a phosphocellulose filter plate. The plate was washed 4 times with 0.075% phosphoric acid (100 ul per well) and then, after the addition of scintillation fluid (20 ul per well), the counts were measured by a scintillation counter.

[2] = system: PC-3 human prostatic cancer cells; assay: Alamar Blue cell proliferation assay, PC3; type: cell-based
Protocol: as §1, §2, §3, §4, §5, §6, §7, §8, §9, §10

recombinant human CK2 = target: T1, recombinant human CK2 (Homo sapiens, UniProt P68400); assay: CK2 assay (cell-free, 33P-ATP filter plate); type: biochemical
T1 construct: purchased Upstate
T1 sequence (P68400 whole entry): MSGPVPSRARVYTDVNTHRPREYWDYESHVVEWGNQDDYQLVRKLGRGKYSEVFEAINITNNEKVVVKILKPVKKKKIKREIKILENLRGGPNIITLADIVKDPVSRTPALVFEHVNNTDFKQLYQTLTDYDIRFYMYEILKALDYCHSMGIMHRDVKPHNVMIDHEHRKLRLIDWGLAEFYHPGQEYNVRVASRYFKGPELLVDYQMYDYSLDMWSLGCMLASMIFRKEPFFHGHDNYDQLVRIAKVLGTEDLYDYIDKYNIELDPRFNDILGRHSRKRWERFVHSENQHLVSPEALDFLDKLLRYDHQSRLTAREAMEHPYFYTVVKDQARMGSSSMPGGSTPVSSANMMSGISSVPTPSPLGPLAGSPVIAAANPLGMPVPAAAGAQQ
T1 sequence (P67870 whole entry partner): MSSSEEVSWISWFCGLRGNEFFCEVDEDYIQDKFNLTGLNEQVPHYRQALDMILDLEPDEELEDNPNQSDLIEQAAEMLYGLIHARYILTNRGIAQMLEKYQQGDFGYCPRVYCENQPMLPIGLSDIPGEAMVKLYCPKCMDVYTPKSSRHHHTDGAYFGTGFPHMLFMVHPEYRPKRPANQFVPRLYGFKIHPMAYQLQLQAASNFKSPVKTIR
Protocol: Modulatory activity of compounds described herein was assessed in vitro in cell-free CK2 assays by the following method.
Test compounds in aqueous solution were added at a volume of 10 microliters, to a reaction mixture comprising 10 microliters Assay Dilution Buffer (ADB; 20 mM MOPS, pH 7.2, 25 mM beta-glycerolphosphate, 5 mM EGTA, 1 mM sodium orthovanadate and 1 mM dithiothreitol), 10 microliters of substrate peptide (RRRDDDSDDD, dissolved in ADB at a concentration of 1 mM), 10 microliters of recombinant human CK2 (25 ng dissolved in ADB; Upstate). Reactions were initiated by the addition of 10 microliters of ATP Solution (90% 75 mM MgCl2, 75 micromolar ATP dissolved in ADB; 10% [γ-^33P]ATP (stock 1 mCi/100 μl; 3000 Ci/mmol (Perkin Elmer) and maintained for 10 minutes at 30 degrees C. The reactions were quenched with 100 microliters of 0.75% phosphoric acid, then transferred to and filtered through a phosphocellulose filter plate (Millipore). After washing each well 5 times with 0.75% phosphoric acid, the plate was dried under vacuum for 5 min and, following the addition of 15 ul of scintillation fluid to each well, the residual radioactivity was measured using a Wallac luminescence counter.

[3] = MV4-11, MV-4-11, Table 1, read-out: AB: MV-4-11 IC50
[4] = MDA-MB-231, MDAMB231, Table 1, read-out: AB: MDAMB231 IC50
[5] = K562, K-562, Table 1, read-out: AB: K-562 IC50
[6] = MIA PaCa-2, Table 1, read-out: AB: MiaPaCa IC50
[7] = PC-3, PC3, Table 1, read-out: AB: PC3
[8] = PC3, Table 2, read-out: AB: PC3 IC50

Row | Structure (SMILES) | IC50 (MV-4-11; [3]) [µM] | IC50 (MDAMB231; [4]) [µM] | IC50 (K-562; [5]) [µM] | IC50 [1, 6] [µM] | IC50 (recombinant PIM-1; Table 1) [µM] | IC50 [2, 7] [µM] | IC50 (recombinant human CK2; Table 1) [µM] | other results
1 | CC(C)N1CCN(C(=O)c2ccc(-c3ccc(/C=C4\SC(=S)NC4=O)o3)cc2)CC1 | > 10 | > 10 | > 10 | > 10 | 0.067 | > 30 |  | 
2 | COC(=O)c1cccc(-c2ccc(CC3SC(=S)NC3=O)o2)c1 (stereo not drawn) | > 10 | > 10 | > 10 | > 10 | 0.006 |  | 0.003 | 
3 | CC(=O)NC1CCN(C(=O)c2cccc(-c3ccc(/C=C4\SC(=S)NC4=O)o3)c2)C1 (stereo not drawn) | > 10 | > 10 | > 10 | > 10 | 0.038 | > 30 | 0.444 | 
4 | O=C1NC(=S)S/C1=C\c1ccc(-c2cc(C(=O)O)ccc2Cl)o1 | > 10 | > 10 | > 10 | > 10 | 0.199 | > 30 | 0.027 | 
5 | CN1CCCN(C(=O)c2ccc(-c3ccc(/C=C4/SC(=O)NC4=O)o3)cc2)CC1 |  |  |  |  |  |  |  | IC50 (MV-4-11; MV4-11, MV-4-11, Table 2, read-out: AB: MV-4-11 IC50): > 1 µM; IC50 (MDAMB231; MDA-MB-231, MDAMB231, Table 2, read-out: AB: MDAMB231 IC50): > 10 µM; IC50 (K-562; K562, K-562, Table 2, read-out: AB: K-562 IC50): > 10 µM; IC50 ([1]; MIA PaCa-2, Table 2, read-out: AB: MiaPaCa IC50): > 10 µM; IC50 (recombinant PIM-1; Table 2): 0.266 µM; IC50 [2, 8]: > 30 µM; IC50 (recombinant human CK2; Table 2): 0.43 µM
6 | O=C1NC(=S)S/C1=C\c1ccc(-c2ccccc2C(=O)O)o1 |  |  |  |  | 4.33 |  | 3.79 | 
7 | CCN(CC)CCNC(=O)c1cc(-c2ccc(/C=C3\SC(=S)NC3=O)o2)ccc1Cl |  | > 10 | > 10 | > 10 | 0.002 | > 10 | 0.01 | 
8 | CN1C(=O)NC(=O)/C1=C\c1ccc(-c2ccc(C(=O)O)cc2)o1 |  |  |  |  |  |  |  | IC50 (recombinant PIM-1; Table 3): 0.829 µM; IC50 (recombinant human CK2; Table 3): 0.216 µM
9 | NS(=O)(=O)c1ccc(-c2ccc(/C=C3\SC(=O)NC3=O)o2)cc1 |  |  |  |  |  |  |  | IC50 (recombinant PIM-1; Table 2): 0.051 µM; IC50 [2, 8]: > 10 µM; IC50 (recombinant human CK2; Table 2): 0.035 µM
10 | CN1CCCN(c2cncc(-c3cccc(/C=C4\SC(=O)NC4=O)c3)n2)CC1 |  |  |  |  |  |  |  | IC50 (K-562; K562, K-562, Table 4, read-out: AB: K-562 IC50): 0.076 µM; IC50 (recombinant PIM-1; Table 4): 0.001 µM; IC50 ([2]; PC3, Table 4, read-out: AB: PC3 IC50): 9.49 µM; IC50 (recombinant human CK2; Table 4): 0.003 µM
11 | CN1CCCN(C(=O)c2cccc(-c3ccc(/C=C4\C(=O)NC(=O)N4C)o3)c2)CC1 |  |  |  |  |  |  |  | IC50 (recombinant PIM-1; Table 3): > 5 µM; IC50 (recombinant human CK2; Table 3): 1.82 µM
12 | CN1CCCN(C(=O)c2ccccc2-c2ccc(/C=C3\SC(=S)NC3=O)o2)CC1 |  |  |  |  | 1.29 |  | > 5 | 

Now from value to compound, other results behind:

Row | IC50 (MV-4-11; [3]) [µM] | IC50 (MDAMB231; [4]) [µM] | IC50 (K-562; [5]) [µM] | IC50 [1, 6] [µM] | IC50 (recombinant PIM-1; Table 1) [µM] | IC50 [2, 7] [µM] | IC50 (recombinant human CK2; Table 1) [µM] | Structure (SMILES) | other results
13 | 8.83 | > 10 | > 10 | > 10 | 0.286 | > 30 | 0.04 | O=C1NC(=S)S/C1=C\c1ccc(-c2ccc(C(=O)NCc3ccccn3)cc2)o1 | 
14 | > 10 | > 10 | > 10 | > 10 | 0.014 | > 30 | 0.226 | Cc1nccn1CCNC(=O)c1ccc(-c2ccc(/C=C3\SC(=S)NC3=O)o2)cc1 | 
15 | > 10 | > 10 | > 10 | > 10 | 0.025 | > 30 |  | CN1CCCN(C(=O)c2ccc(-c3ccc(/C=C4\SC(=S)NC4=O)o3)cc2)CC1 | 
16 | > 10 | > 10 | > 10 | > 10 | 0.059 | > 10 | 0.004 | O=C1NC(=S)S/C1=C\c1ccc(-c2ccccc2)o1 | 
17 | > 10 | > 10 | > 10 | > 10 | 0.037 | > 30 |  | CN1CCC(N(C)C(=O)c2ccc(-c3ccc(/C=C4\SC(=S)NC4=O)o3)cc2)C1 (stereo not drawn) | 
